Laboratory results taken from US7728146B2, “Enzyme inhibitors” (Probiodrug AG, priority 2006, dated 2010).
Like-named read-outs stand apart in the source and are kept apart here.

Biological target: DP IV (Homo sapiens, UniProt P27487)
Test: DP IV inhibition IC50, parallel-synthesis compounds tested directly following synthesis (without purification)
Assay type: biochemical
Design: IC50 DP4; other: tested directly following parallel synthesis, without purification; compounds of formula (Ib) from parallel synthesis, tested directly following synthesis
Method: Compounds were immediately tested regarding their activity as DP IV inhibitors.
Substances are screened for inhibition of dipeptidyl peptidase (DP IV) by their ability to inhibit the hydrolysis of the DP IV specific substrate Glycyl-Prolyl-4-Nitroanilide (Gly-Pro-pNA). All compounds are diluted in DMSO and IC50 will be determined with 11 serial dilutions (1:2) starting with an final concentration of 100 μM. The final DMSO concentration in the assay is 5% (v/v). The method was automated using a Tecan Genesis Freedom liquid handler and a Genius Pro (Tecan) microplate reader.
DP IV from porcine kidney (pDP IV) or recombinant human DP IV (rhDP IV) is diluted in HEPES buffer to a final activity of approximately 40-50 μU*ml^−1. The DP IV is stored in a cooling rack (4° C.) on the liquid handler.
The assay may becarried out at room temperature using Freedom liquid handler connected with a Genios Pro microplate reader. Each sample is measured in duplicate. Each sample stock solution is prediluted with DMSO in a ratio of 1:5 in a polypropylen 96-well plate. From this predilution 10 serial (1:2) dilutions in DMSO are prepared. 13.5 μl of the 11 DMSO dilutions and DMSO alone are transferred to the measurement microplate (duplicates) and 86.5 μl water, 100 μl HEPES buffer and 50 μl substrate solution are added to each well. The enzymatic reaction is started by addition of 20 μl enzyme solution to each well, and then the microplate is immediately transferred to the microplate reader.
After short mixing (20 s) the release of 4-Nitroanilin (pNA) is monitored at 405 nm for 30 cycles (approx. 18 min).
Post assay calculations are done by the Magellan (Tecan) and Graphit Software. The linear slopes are calculated for each well and averaged for the duplicates. The residue activities are calculated in relation to a sample containing only solvent instead of inhibitor and expressed in %. Residue activities are plotted against the log of inhibitor concentrations and IC50 is calculated by an 4-parameter fitting ranging from 0 to 100%.

[1] = tested directly following parallel synthesis, without purification, read-out: IC50 DP4
[2] = DP IV inhibition, compounds of formula (Ib) from parallel synthesis, tested directly following synthesis (without purification), read-out: IC50

| Compound | IC50 [1] [µM] | IC50 [2] [µM] |
| --- | --- | --- |
| CCOc1ccccc1Cn1cnc(-c2ccc(C)cc2C)c1CN [Example 70a, C-[5-(2,4-Dimethyl-phenyl)-3-(2-ethoxy-benzyl)-3H-imid-azol-4-yl]-methyl-amine] | 16.3 |  |
| CC(N)c1c(-c2ccc(Cl)cc2Cl)ncn1CCCc1ccccc1 (centres unmarked) [70b, 1-[5-(2,4-Dichloro-phenyl)-3-(3-phenyl-propyl)-3H-imidazol-4-yl]-ethylamine] |  | 41.5 |
| NCc1c(-c2ccc(F)cc2F)ncn1Cc1cc(F)ccc1F [Example 85a, C-[3-(2,5-Difluoro-benzyl)-5-(2,4-difluoro-phenyl)-3H-imid-azol-4-yl]-methyl-amine] | 36.1 |  |
| NCc1c(-c2ccc(Cl)cc2Cl)ncn1Cc1c(F)cccc1F [40b, C-[5-(2,4-Dichloro-phenyl)-3-(2,6-difluoro-benzyl)-3H-imidazol-4-yl]-methylamine] |  | 10.9 |
| CC(N)c1c(-c2ccc(Cl)cc2Cl)ncn1CCc1ccccn1 (centres unmarked) [73b, 1-[5-(2,4-Dichloro-phenyl)-3-(2-pyridin-2-yl-ethyl)-3H-imidazol-4-yl]-ethylamine] |  | 38.8 |
| NCc1c(-c2ccc(F)cc2Cl)ncn1Cc1ccco1 [Example 2a, C-[5-(2-Chloro-4-fluoro-phenyl)-3-furan-2-yl-methyl-3H-imid-azol-4-yl]-methyl-amine] | 16.3 |  |
| Cc1ccccc1Cn1cnc(-c2ccc(F)cc2Cl)c1CN [Example 14a, C-[5-(2-Chloro-4-fluoro-phenyl)-3-(2-methyl-benzyl)-3H-imid-azol-4-yl]-methyl-amine] | 19.9 |  |
| CCCn1cnc(-c2ccc(Cl)cc2Cl)c1CN [Example 40a, C-[5-(2,4-Dichloro-phenyl)-3-pro-pyl-3H-imid-azol-4-yl]-methyl-amine] | 3.7 |  |
| CC(N)c1c(-c2ccc(Cl)cc2Cl)ncn1Cc1cccnc1 (centres unmarked) [78b, 1-[5-(2,4-Dichloro-phenyl)-3-pyridin-3-ylmethyl-3H-imidazol-4-yl]-ethylamine] |  | 28 |
| NCc1c(-c2ccc(Cl)cc2Cl)ncn1Cc1cc(F)ccc1F [Example 61a, C-[5-(2,4-Dichloro-phenyl)-3-(2,5-difluoro-benzyl)-3H-imid-azol-4-yl]-methyl-amine] | 1.9 |  |
| COc1ccc(Cn2cnc(-c3ccc(Cl)cc3Cl)c2C(C)N)cc1 (centres unmarked) [43b, 1-[5-(2,4-Dichloro-phenyl)-3-(4-methoxy-benzyl)-3H-imidazol-4-yl]-ethylamine] |  | 27.1 |
| NCc1c(-c2ccc(Cl)cc2Cl)ncn1Cc1ccccc1C(F)(F)F [108b, C-[5-(2,4-Dichloro-phenyl)-3-(2-trifluoromethyl-benzyl)-3H-imidazol-4-yl]-methylamine] |  | 5.5 |
| C[C@H](N)c1c(-c2ccc(Cl)cc2Cl)ncn1CCC(c1ccccc1)c1ccccc1 [88b, (S)-1-[5-(2,4-Dichloro-phenyl)-3-(3,3-diphenyl-propyl)-3H-imidazol-4-yl]-ethylamine] |  | 28 |
| C[C@H](N)c1c(-c2ccc(Cl)cc2Cl)ncn1CCc1c[nH]c2cc(Cl)ccc12 [101b, (S)-1-[3-[2-(6-Chloro-1H-indol-3-yl)-ethyl]-5-(2,4-dichloro-phenyl)-3H-imidazol-4-yl]-ethylamine] |  | 47.8 |
| Clc1ccc(-c2ncn(CCc3ccccc3Cl)c2C2CNC2)c(Cl)c1 [117b, 5-Azetidin-3-yl-1-[2-(2-chloro-phenyl)-ethyl]-4-(2,4-dichloro-phenyl)-1H-imidazole] |  | 39.7 |
| Cc1ccc(-c2ncn(Cc3cc(Br)ccc3F)c2CN)c(C)c1 [Example 68a, C-[3-(5-Bro-mo-2-fluoro-benzyl)-5-(2,4-dimethyl-phenyl)-3H-imid-azol-4-yl]-methyl-amine] | 37.9 |  |
| NCc1c(-c2ccc(F)cc2Cl)ncn1Cc1ccc(F)cc1 [Example 5a, C-[5-(2-Chloro-4-fluoro-phenyl)-3-(4-fluoro-benzyl)-3H-imid-azol-4-yl]-methyl-amine] | 10.9 |  |
| CCOc1ccccc1Cn1cnc(-c2ccc(Cl)cc2Cl)c1CN [Example 50a, C-[5-(2,4-Dichloro-phenyl)-3-(2-ethoxy-benzyl)-3H-imid-azol-4-yl]-methyl-amine] | 0.1 |  |
| NCc1c(-c2ccc(F)cc2Cl)ncn1Cc1ccccc1F [Example 28a, C-[5-(2-Chloro-4-fluoro-phenyl)-3-(2-fluoro-benzyl)-3H-imid-azol-4-yl]-methyl-amine] | 19 |  |

| Compound | IC50 [1] [µM] | IC50 [2] [µM] |
| --- | --- | --- |
| NCc1c(-c2ccc(F)cc2Cl)ncn1Cc1cccnc1 [Example 31a, C-[5-(2-Chloro-4-fluoro-phenyl)-3-pyri-din-3-ylmethyl-3H-imid-azol-4-yl]-methyl-amine] | 5.5 |  |
| NCc1c(-c2ccc(Cl)cc2Cl)ncn1Cc1cccs1 [Example 32a, C-[5-(2,4-Di-chloro-phenyl)-3-thio-phen-2-yl-methyl-3H-imid-azol-4-yl]-methyl-amine] | 0.1 |  |
| NCc1c(-c2ccc(Cl)cc2Cl)ncn1Cc1ccccc1Cl [Example 34a, C-[3-(2-Chloro-benzyl)-5-(2,4-di-chloro-phenyl)-3H-imid-azol-4-yl]-methyl-amine] | 1 |  |
| NCc1c(-c2ccc(Cl)cc2Cl)ncn1CCNC1CCCCC1 [4b, {2-[5-Aminomethyl-4-(2,4-dichloro-phenyl)-imidazol-1-yl]-ethyl}-cyclohexyl-amine] |  | 10 |
| NCc1c(-c2ccc(Cl)cc2Cl)ncn1Cc1ccc(F)c(F)c1 [Example 92b, C-[5-(2,4-dichloro-phenyl)-3-(3,4-difluoro-benzyl)-3H-imidazol-4-yl]-methylamine] |  | 1 |
| NCc1c(-c2ccc(Cl)cc2Cl)ncn1CCNc1ccc([N+](=O)[O-])cn1 [20b, {2-[5-Aminomethyl-4-(2,4-dichloro-phenyl)-imidazol-1-yl]-ethyl}-(5-nitro-pyridin-2-yl)-amine] |  | 8.2 |
| NCc1c(-c2ccc(F)cc2F)ncn1Cc1ccccc1Cl [Example 73a, C-[3-(2-Chloro-benzyl)-5-(2,4-difluoro-phenyl)-3H-imid-azol-4-yl]-methyl-amine] | 27.1 |  |
| NCc1c(-c2ccc(F)cc2Cl)ncn1Cc1ccc(F)cc1F [Example 7a, C-[5-(2-Chloro-4-fluoro-phenyl)-3-(2,4-difluoro-benzyl)-3H-imid-azol-4-yl]-methyl-amine] | 27.1 |  |
| NCc1c(-c2ccc(Cl)cc2Cl)ncn1CCc1ccccc1 [57b, C-[5-(2,4-Dichloro-phenyl)-3-phenethyl-3H-imidazol-4-yl]-methylamine] |  | 9.1 |
| C[C@H](N)c1c(-c2ccc(Cl)cc2Cl)ncn1CCNc1ccc([N+](=O)[O-])cn1 [111b, {2-[5-((S)-1-Amino-ethyl)-4-(2,4-dichloro-phenyl)-imidazol-1-yl]-ethyl}-(5-nitro-pyridin-2-yl)-amine] |  | 21.7 |
| NCc1c(-c2ccc(Cl)cc2Cl)ncn1CCc1ccc(Br)cc1 [49b, C-[3-[2-(4-Bromo-phenyl)-ethyl]-5-(2,4-dichloro-phenyl)-3H-imidazol-4-yl]-methylamine] |  | 9.1 |
| NCc1c(-c2ccc(Cl)cc2Cl)ncn1CCOc1ccccc1 [100b, C-[5-(2,4-Dichloro-phenyl)-3-(2-phenoxy-ethyl)-3H-imidazol-4-yl]-methylamine] |  | 34.3 |
| NCc1c(-c2ccc(F)cc2Cl)ncn1Cc1cccc(F)c1 [Example 10a, C-[5-(2-Chloro-4-fluoro-phenyl)-3-(3-fluoro-benzyl)-3H-imid-azol-4-yl]-methyl-amine] | 14.5 |  |
| NCc1c(-c2ccc(Cl)cc2Cl)ncn1Cc1cccnc1 [Example 66a, C-[5-(2,4-Dichloro-phenyl)-3-pyri-din-3-yl-methyl-3H-imid-azol-4-yl]-methyl-amine] | 0.1 |  |
| NCCCc1c(-c2ccc(Cl)cc2Cl)ncn1CCc1ccccc1Cl [90b, 3-[3-[2-(2-Chloro-phenyl)-ethyl]-5-(2,4-dichloro-phenyl)-3H-imidazol-4-yl]-propylamine] |  | 14.5 |
| NCc1c(-c2ccc(Cl)cc2Cl)ncn1CCc1c[nH]c2cc(F)ccc12 [114b, C-{5-(2,4-Dichloro-phenyl)-3-[2-(6-fluoro-1H-indol-3-yl)-ethyl]-3H-imidazol-4-yl}-methylamine] |  | 3.7 |
| NCc1c(-c2ccc(Cl)cc2Cl)ncn1Cc1ccc(F)cc1 [Example 36a, C-[5-(2,4-Dichloro-phenyl)-3-(4-fluoro-benzyl)-3H-imid-azol-4-yl]-methyl-amine] | 0.1 |  |
| NCc1c(-c2ccc(Cl)cc2Cl)ncn1CCOCCO [18b, 2-{2-[5-Aminomethyl-4-(2,4-dichloro-phenyl)-imidazol-1-yl]-ethoxy}-ethanol] |  | 20.8 |
| CC(C)(C)Cn1cnc(-c2ccc(F)cc2F)c1CN [Example 83a, C-[5-(2,4-Difluoro-phenyl)-3-(2,2-dimethyl-propyl)-3H-imid-azol-4-yl]-methyl-amine] | 27.1 |  |
